Experimental data published in patent US4725687A (priority 1986, dated 1988).
Read-outs that look alike come from different tables or passages of the source. Blank lines part the entries; values can stand above or below the compound they belong to.

What was measured:
P388/MTX = test: Survival of P388/MTX (MTX-resistant P388) bearing mice, in vivo; set-up: species or system murine; settings: ip; for survival time: control 17.2 days; for % T/C: survival time
Source text: (§1) Comparison of the Response of Murine P388/0
(§2) ^a Implant: ip, 10^6 cells; method described by Geran et al,
(§3) Cancer Chemother. Rep. Part 3, Vol. 3 (2) (1972).

L1210 cells [1] = test: Mediated transport (influx, efflux) in L1210 cells; format: cell-based; settings: n = 3-4, SE; for Km: influx
Source text: (§4) (a) Methods are described by Sirotnak et al, "Molecular Actions and
(§5) Targets for Cancer Chemotherapy Agents", Sartorelli, A.C. Ed., Academic
(§6) Press., New York, pps. 349-383 (1981); Sirotnak et al, Biochem.
(§7) Pharmacol., Vol. 29, p. 3293 (1980); and Sirotnak et al, Cancer Res., Vol

L1210 cells [2] = test: Rate of net polyglutamate formation in L1210 cells; format: cell-based; settings: for order of initial rates of polyglutamate accumulation: comparable rates of drug entry; for Rate of net polyglutamate formation: conditions of comparable rates of drug entry
P388/0 = test: Survival of P388/0 bearing mice, in vivo; set-up: species or system murine; settings: for survival time: P388/0, ip, control 10.8 days; for % T/C: P388/0, survival time, ip
Source text: as §1, §2, §3

L1210 cells [3] = test: L1210 cell growth inhibition in culture; format: cell-based; settings: for IC50: Mus musculus; for potency in the L1210 cell growth inhibition test relative to 5-deazamethotrexate: compared with 5-deazamethotrexate; for potency in the L1210 cell growth inhibition test relative to MTX: compared with MTX
Source text: as §4, §5, §6, §7

[4] = tested on: EO771 mammary adenocarcinoma; test: Antitumor effects against the EO771 mammary adenocarcinoma in mice; format: in vivo; settings: once per day for five days; for T/C (tumor volume treated/control) / tumor free total / AWC (average weight change): day 7; for toxic deaths total: day 7, 14 or 21; for ave. tumor vol.: day 7, ± SE, control 225 ± 60; for tumor free total: control 0/14
Source text: 5-Methyl-5-Deazamethotrexate (20) Against the EO771
Mammary Adenocarcinoma. Average of Two Separate
Experiments (5 Mice/Group) ± SE of the Mean.
^1 given once per day for five days starting one day after tumor
^2 average weight change on day 7 (one day after cessation of therapy
^3 assessed on day 7, 14 or 21
^4 assessed on day 7 (4/3 πr^3) T/C = treated/control
^5 assessed on day 7 (one day after cessation of therapy)

[5] = read-out: Cell Growth inhibn IC50 (n = 4) ± SE, L1210 cells, n = 4, ± SE
[6] = qd 1-5, optimal dose 0.25 mg/kg

IC50 (L1210 cells [3]; [5]): 2.85 ± 0.3 nM
SMILES: CN(Cc1cnc2nc(N)nc(N)c2c1)c1ccc(C(=O)N[C@@H](CCC(=O)O)C(=O)O)cc1 [Compound 5-dMTX, 5-deazamethotrexate, reference compound]
survival time (P388/MTX; qd 1-5, optimal dose 4 mg/kg): 20.3 days | % T/C (P388/MTX; qd 1-5, optimal dose 4 mg/kg): 118% | Mediated Transport efflux k + SE (L1210 cells [1]): 0.28 ± 0.04 min⁻¹ | Km (L1210 cells [1]): 4 ± 0.5 µM | order of initial rates of polyglutamate accumulation (L1210 cells [2]): AMT>5-Me-5-dAMT>5-dAMT>MTX>5-dMTX>5-Me5-dMTX | Rate of net polyglutamate formation (L1210 cells [2]): 48.8 pM/min/g dry wt | survival time (P388/0; qd 1-5, optimal dose 4 mg/kg): 18.0 days | % T/C (P388/0; qd 1-5, optimal dose 4 mg/kg): 166%

SMILES: CCOC(=O)CC[C@H](NC(=O)c1ccc(NCc2cnc3nc(N)nc(N)c3c2)cc1)C(=O)OCC [Compound 9, N-[4-[[(2,4-Diaminopyrido[2,3-d]pyrimidin-6-yl)methyl]-amino]benzoyl]-L-glutamic Acid Diethyl Ester]
survival time (P388/MTX; qd 1-5, optimal dose 1 mg/kg): 20.8 days | % T/C (P388/MTX; qd 1-5, optimal dose 1 mg/kg): 120% | survival time (P388/0; qd 1-5, optimal dose 1 mg/kg): 16.2 days | % T/C (P388/0; qd 1-5, optimal dose 1 mg/kg): 151%

SMILES: Nc1nc(N)c2cc(CNc3ccc(C(=O)N[C@@H](CCC(=O)O)C(=O)O)cc3)cnc2n1 [Compound 11]
survival time (P388/MTX; qd 1-5, optimal dose 2 mg/kg): 21.8 days | % T/C (P388/MTX; qd 1-5, optimal dose 2 mg/kg): 126% | Mediated Transport efflux k + SE (L1210 cells [1]): 0.30 ± 0.04 min⁻¹ | Km (L1210 cells [1]): 1.1 ± 0.2 µM | order of initial rates of polyglutamate accumulation (L1210 cells [2]): AMT>5-Me-5-dAMT>5-dAMT>MTX>5-dMTX>5-Me5-dMTX | Rate of net polyglutamate formation (L1210 cells [2]): 84.2 pM/min/g dry wt | survival time (P388/0; qd 1-5, optimal dose 0.5 mg/kg): 15.8 days | % T/C (P388/0; qd 1-5, optimal dose 0.5 mg/kg): 146% | IC50 (L1210 cells [3]; [5]): 0.63 ± 0.07 nM

SMILES: Cc1c(CNc2ccc(C(=O)N[C@@H](CCC(=O)O)C(=O)O)cc2)cnc2nc(N)nc(N)c12 [Compound 12]
survival time (P388/MTX; qd 1-5, optimal dose 0.5 mg/kg): 20.8 days | % T/C (P388/MTX; qd 1-5, optimal dose 0.5 mg/kg): 120% | Mediated Transport efflux k + SE (L1210 cells [1]): 0.26 ± 0.05 min⁻¹ | Km (L1210 cells [1]): 1.2 ± 0.2 µM | order of initial rates of polyglutamate accumulation (L1210 cells [2]): AMT>5-Me-5-dAMT>5-dAMT>MTX>5-dMTX>5-Me5-dMTX | Rate of net polyglutamate formation (L1210 cells [2]): 98.3 pM/min/g dry wt | survival time (P388/0; qd 1-5, optimal dose 0.5 mg/kg): 16.4 days | % T/C (P388/0; qd 1-5, optimal dose 0.5 mg/kg): 151% | IC50 (L1210 cells [3]; L1210, read-out: Cell Growth inhibn IC50 (n = 4) ± SE): 1.29 ± 0.2 nM

SMILES: Cc1c(CN(C)c2ccc(C(=O)N[C@@H](CCC(=O)O)C(=O)O)cc2)cnc2nc(N)nc(N)c12 [Compound 20, N-[4-[[2,4-Diamino-5-methylpyrido[2,3-d]pyrimidin-6-yl)methyl]methylamino]benzoyl-L-glutamic Acid]
survival time (P388/MTX; [6]): 20.8 days | % T/C (P388/MTX; [6]): 120% | Mediated Transport efflux k + SE (L1210 cells [1]): 0.31 ± 0.05 min⁻¹ | Km (L1210 cells [1]): 3.2 ± 0.4 µM | order of initial rates of polyglutamate accumulation (L1210 cells [2]): AMT>5-Me-5-dAMT>5-dAMT>MTX>5-dMTX>5-Me5-dMTX | Rate of net polyglutamate formation (L1210 cells [2]): 42.9 pM/min/g dry wt | T/C (tumor volume treated/control) ([4]; 0.375 mg/kg): 0.25 | toxic deaths total ([4]; 0.375 mg/kg): 0/10 | ave. tumor vol. ([4]; 0.375 mg/kg): 50 ± 16 mm^3 | tumor free total ([4]; 0.375 mg/kg): 0/10 | T/C (tumor volume treated/control) ([4]; 0.75 mg/kg): 0.13 | toxic deaths total ([4]; 0.75 mg/kg): 0/10 | ave. tumor vol. ([4]; 0.75 mg/kg): 35 ± 10 mm^3 | tumor free total ([4]; 0.75 mg/kg): 1/10 | T/C (tumor volume treated/control) ([4]; 1.5 mg/kg): 0.03 | toxic deaths total ([4]; 1.5 mg/kg): 0/10 | ave. tumor vol. ([4]; 1.5 mg/kg): 4 ± 2 mm^3 | tumor free total ([4]; 1.5 mg/kg): 6/10 | T/C (tumor volume treated/control) ([4]; 3.0 mg/kg): 0.02 | toxic deaths total ([4]; 3.0 mg/kg): 5/6 | ave. tumor vol. ([4]; 3.0 mg/kg): 3 ± 1 mm^3 | tumor free total ([4]; 3.0 mg/kg): toxic | survival time (P388/0; qd 1-5, optimal dose 1 mg/kg): 19.7 days | % T/C (P388/0; qd 1-5, optimal dose 1 mg/kg): 182% | IC50 (L1210 cells [3]; [5]): 0.24 ± 0.03 nM | potency in the L1210 cell growth inhibition test relative to 5-deazamethotrexate (L1210 cells [3]): more than 10 times | potency in the L1210 cell growth inhibition test relative to MTX (L1210 cells [3]): 10 times

IC50 (L1210 cells [3]; [5]): 0.26 ± 0.02 nM
SMILES: CCN(Cc1cnc2nc(N)nc(N)c2c1C)c1ccc(C(=O)N[C@@H](CCC(=O)O)C(=O)O)cc1 [Compound 21]
Mediated Transport efflux k + SE (L1210 cells [1]): 0.29 ± 0.04 min⁻¹ | Km (L1210 cells [1]): 3.3 ± 0.5 µM | potency in the L1210 cell growth inhibition test relative to 5-deazamethotrexate (L1210 cells [3]): more than 10 times | potency in the L1210 cell growth inhibition test relative to MTX (L1210 cells [3]): 10 times

SMILES: CN(Cc1cnc2nc(N)nc(N)c2n1)c1ccc(C(=O)N[C@@H](CCC(=O)O)C(=O)O)cc1 [MTX, Methotrexate, reference compound]
survival time (P388/MTX; qd 1-5, optimal dose 3.5 mg/kg): 20.3 days | % T/C (P388/MTX; qd 1-5, optimal dose 3.5 mg/kg): 118% | Mediated Transport efflux k + SE (L1210 cells [1]): 0.33 ± 0.06 min⁻¹ | Km (L1210 cells [1]): 3.3 ± 0.7 µM | order of initial rates of polyglutamate accumulation (L1210 cells [2]): AMT>5-Me-5-dAMT>5-dAMT>MTX>5-dMTX>5-Me5-dMTX | AWC (average weight change) ([4]; 1.5 mg/kg): +0.9 g | T/C (tumor volume treated/control) ([4]; 1.5 mg/kg): 0.60 | toxic deaths total ([4]; 1.5 mg/kg): 0/10 | ave. tumor vol. ([4]; 1.5 mg/kg): 102 ± 32 mm^3 | tumor free total ([4]; 1.5 mg/kg): 1/10 | AWC (average weight change) ([4]; 3.0 mg/kg): -0.2 g | T/C (tumor volume treated/control) ([4]; 3.0 mg/kg): 0.61 | toxic deaths total ([4]; 3.0 mg/kg): 0/10 | ave. tumor vol. ([4]; 3.0 mg/kg): 108 ± 24 mm^3 | tumor free total ([4]; 3.0 mg/kg): 1/10 | AWC (average weight change) ([4]; 6.0 mg/kg): -2.1 g | T/C (tumor volume treated/control) ([4]; 6.0 mg/kg): 0.12 | toxic deaths total ([4]; 6.0 mg/kg): 4/10 | ave. tumor vol. ([4]; 6.0 mg/kg): 22 ± 5 mm^3 | tumor free total ([4]; 6.0 mg/kg): toxic | survival time (P388/0; qd 1-5, optimal dose 4 mg/kg): 19.7 days | % T/C (P388/0; qd 1-5, optimal dose 4 mg/kg): 182%
